Data taken from patent US7105527B2, “N4-acylcytosine nucleosides for treatment of viral infections” (priority 2001, dated 2006).
Read-outs that look alike come from different tables or passages of the source.

What was measured:
[1] = Cytotoxicity assay in CEM cells; type: cell-based, human; settings: human, CEM lymphoblastoid cells
Method: (§1) The toxicity of the compounds was assessed in Vero, human PBM, CEM (human lymphoblastoid), MT-2, and HepG2 cells, as described previously (Schinazi […]., Cannon D. L., Xie […]., Smith […]. […] Cycloheximide was included as positive cytotoxic control, and untreated cells exposed to solvent were included as negative controls. The cytotoxicity IC50 was obtained from the concentration-response curve using the median effective method described previously (Chou […]. […] Belen'kii M. S. & Schinazi R. F.

[2] = Cytotoxicity assay in MT-2 cells; type: cell-based; settings: human
Method: as §1

[3] = test system: HIV-1RF; experiment: Anti-HIV (in MT-2 cells) assay, viral RNA accumulation; type: cell-based; settings: EC90, MT-2 cells, read-out: Anti-HIV-1 activity in different cells (EC90, μM) MT-2
Method: (§2) In a second antiviral testing system, the potency of the compounds was determined by measurement of viral RNA accumulation in HIV-1RF infected MT-2 cells (Bacheler L T, Paul M, Otto M J, Jadhav P K, Stone B A & Miller J A (1994) An assay for HIV RNIn infected cell lysates, and its use for rapid evaluation of antiviral efficacy. Antivir. Chem. Chemother. 5:111–121). The virus titer was established to determine the dilution producing 15 to 30 ng/RNA per well of HIV RNIn 3 days of infection. HIV-1 RNA was quantified using biotinylated capture and alkaline phosphatase-derivatized reporter oligonucleotides as described previously (Charvet A-S, Camplo M, Faury P, Graciet J C, Mourier N, Chermann J C & Kraus J L (1994) Inhibition of human immunodeficiency virus type 1 replication by phosphonoformate- and phosphonoacetate-2′,3′-dideoxy-3′-thiacytidine conjugates. J. Med. Chem. 37:2216–2223). In a third system, the effect of analogs on the replication of HIV-1NL4-3 was determined via the InterCompany Consortium consensus p24 assay as previously described (Jadhav P K & MacKay M F (1997) Cyclic urea amide: HIV-1 protease inhibitors with low nanomolar potency against both wild types and protease inhibitor resistant mutants of HIV. J. Med. Chem. 40:181–190). Recombinant viruses were recovered by transfecting the appropriate NL4-3 plasmid by lipofection. Virus stocks recovered 7 to 10 days post-transfection were titered on MT-4 cells to determine if the dilution produced 1,000 to 3,000 ng p24 in 4 days. This dilution was then used in drug susceptibility assays, where drug was added 24 h post infection of cells, and p24 quantified by ELISA 3 days later.

[4] = Cytotoxicity assay in HepG2 cells; type: cell-based; settings: human
Method: as §1

[5] = test system: HIV-1NL4-3; experiment: Anti-HIV assay in MT-4 cells, consensus p24 assay; type: cell-based
Method: as §2

[6] = Cytotoxicity assay in PBM cells; type: cell-based, human; settings: human, human PBM cells
Method: as §1

[7] = test system: HIV-1LAl; experiment: Anti-HIV (in PBM cells) assay, reverse transcriptase readout; type: cell-based
Method: Anti-HIV-1 activity of the compounds was determined in human peripheral blood mononuclear (PBM) cells as described previously (Schinazi […]., Cannon D., Mathis R., Lloyd R. M. Jr., […]., St. Clair M., Wilson J., Furman P. A., Painter G., Choi […]. Antimicrob. Agents Chemother. 1992, 36, 2423; Schinazi […]., Cannon D., Xie […]., Smith G., Hahn E. Antimicrob. Agents Chemother. 1990, 34, 1061). Stock solutions ([…]) of the compounds were prepared in sterile DMSO and then diluted to the desired concentration in growth medium. […] Virus obtained from the cell supernatant was quantified on day 6 after infection by a reverse transcriptase assay using (rA)n.(dT)12.18 as template-primer. […] AZT was included as positive control. The antiviral EC50 and EC90 were obtained from the concentration-response curve using the median effective method described previously (Chou […]. Enzyme Regul. 1984, 22, 27-55; Belen'kii M. S. & Schinazi R. F. Antiviral Res. 1994, 25, 1-11).

[8] = Cytotoxicity assay in Vero cells; type: cell-based; settings: African green monkey
Method: as §1

[9] = test system: CEM (human lymphoblastoid) cells; experiment: Cytotoxicity assay in CEM cells; type: cell-based; settings: Table 1, read-out: Cytotoxicity in different cells (IC50, μM) CEM
Method: as §1

[10] = test system: MT-2 cells; experiment: Cytotoxicity assay in MT-2 cells; type: cell-based; settings: Table 1, read-out: Cytotoxicity in different cells (IC50, μM) MT-2
Method: as §1

[11] = test system: HepG2 cells; experiment: Cytotoxicity assay in HepG2 cells; type: cell-based; settings: Table 1, read-out: Cytotoxicity in different cells (IC50, μM) HepG2
Method: as §1

[12] = test system: human PBM cells; experiment: Cytotoxicity assay in PBM cells; type: cell-based; settings: Table 1, read-out: Cytotoxicity in different cells (IC50, μM) PBM
Method: as §1

[13] = test system: Vero cells; experiment: Cytotoxicity assay in Vero cells; type: cell-based; settings: Table 1, read-out: Cytotoxicity in different cells (IC50, μM) Vero
Method: as §1

[14] = Table 1, read-out: Cytotoxicity in different cells (IC50, μM) CEM
[15] = Table 1, read-out: Cytotoxicity in different cells (IC50, μM) MT-2
[16] = Human immunodeficiency virus 1, MT2, Table 1
[17] = Table 1, read-out: Cytotoxicity in different cells (IC50, μM) HepG2
[18] = Human immunodeficiency virus 1, MT4, Table 1, read-out: Anti-HIV-1 activity in different cells (EC90, μM) MT-4
[19] = Table 1, read-out: Cytotoxicity in different cells (IC50, μM) PBM
[20] = Human immunodeficiency virus 1, PBMC, Table 1, read-out: Anti-HIV-1 activity in different cells (EC90, μM) PBM
[21] = Table 1, read-out: Cytotoxicity in different cells (IC50, μM) Vero
[22] = Table 2, read-out: Cytotoxicity in different cells (IC50, μM) CEM
[23] = Table 2, read-out: Cytotoxicity in different cells (IC50, μM) MT-2
[24] = Human immunodeficiency virus 1, MT2, Table 2
[25] = Table 2, read-out: Cytotoxicity in different cells (IC50, μM) HepG2
[26] = Human immunodeficiency virus 1, MT4, Table 2, read-out: Anti-HIV-1 activity in different cells (EC90, μM) MT-4
[27] = Table 2, read-out: Cytotoxicity in different cells (IC50, μM) PBM
[28] = Human immunodeficiency virus 1, PBMC, Table 2, read-out: Anti-HIV-1 activity in different cells (EC90, μM) PBM
[29] = Table 2, read-out: Cytotoxicity in different cells (IC50, μM) Vero

SMILES | IC50 [1, 14] [µM] | IC50 [2, 15] [µM] | EC90 [3, 16] [µM] | IC50 [4, 17] [µM] | EC90 [5, 18] [µM] | IC50 [6, 19] [µM] | EC90 [7, 20] [µM] | IC50 [8, 21] [µM] | also measured
O=C(Nc1nc(=O)n([C@H]2CC[C@@H](CO)O2)cc1F)c1ccc(Cl)cc1 [Compound 12, β-D-N^4-(4-chlororobenzoyl)-2′,3′-dideoxy-5-fluorocytidine] | 33.4 | > 50 | 0.22 | 7.3 | 0.37 | > 100 | 0.02 | > 100 | 
O=C(Nc1nc(=O)n([C@H]2CC[C@@H](CO)O2)cc1F)c1ccc(Br)cc1 [Compound 13, β-D-N^4-(4-bromobenzoyl)-2′,3′-dideoxy-5-fluorocytidine] | 31.6 | > 50 | 0.14 | > 100 | 0.3 | > 100 | 0.03 | > 100 | 
O=C(Nc1nc(=O)n([C@H]2CC[C@@H](CO)O2)cc1F)c1cccc(F)c1 [Compound 14, β-D-2′,3′-Dideoxy-5-fluoro-M-(3-fluorobenzoyl)cytidine] | 80.8 | > 50 | 0.46 | > 100 | 0.43 | > 100 | 0.106 | > 100 | 
O=C(Nc1nc(=O)n([C@H]2CC[C@@H](CO)O2)cc1F)c1cccc(Cl)c1 [Compound 15, β-D-N^4-(3-Chlorobenzoyl)-2′,3′-dideoxy-5-fluorocytidine] | 68.1 | > 50 | 0.4 | > 100 | 0.51 | > 100 | 0.08 | 91.6 | 
O=C(Nc1nc(=O)n([C@H]2CC[C@@H](CO)O2)cc1F)c1cccc(Br)c1 [Compound 16, β-D-N^4-(3-Bromobenzoyl)-2′,3′-dideoxy-5-fluorocytidine] | 40.6 | > 50 | 0.51 | > 100 | 0.42 | > 100 | 0.145 | 80.6 | 
O=C(Nc1nc(=O)n([C@H]2CC[C@@H](CO)O2)cc1F)c1ccc([N+](=O)[O-])cc1 [Compound 18, β-D-2′,3′-Dideoxy-5-fluoro-N^4-(4-nitrobenzoyl)cytidine] | > 100 | > 50 | 0.4 | > 100 | 0.3 | > 100 | 0.18 | > 100 | 
O=C(Nc1nc(=O)n([C@H]2CC[C@@H](CO)O2)cc1F)c1cccc([N+](=O)[O-])c1 [Compound 19, β-D-2′,3′-Dideoxy-S-fluoro-N-(3-nitrobenzoyl)cytidine] |  |  |  |  |  |  |  |  | IC50 [9]: > 100 µM; IC50 [10]: > 50 µM; EC90 ([3]; Table 1): 1.8 µM; IC50 [11]: > 100 µM; EC90 ([5]; Table 1, read-out: Anti-HIV-1 activity in different cells (EC90, μM) MT-4): 1.59 µM; IC50 [12]: > 100 µM; EC90 ([7]; Table 1, read-out: Anti-HIV-1 activity in different cells (EC90, μM) PBM): 1.6 µM; IC50 [13]: > 100 µM
Cc1ccc(C(=O)Nc2nc(=O)n([C@H]3CC[C@@H](CO)O3)cc2F)cc1 [Compound 22, β-D-2′,3′-Dideoxy-5-fluoro-N^4-p-toluoylcytidine] | > 100 | > 50 | 0.31 | > 100 | 0.23 | > 100 | 0.028 | > 100 | 
CCc1ccc(C(=O)Nc2nc(=O)n([C@H]3CC[C@@H](CO)O3)cc2F)cc1 [Compound 25, β-D-2′,3′-Dideoxy-N^4-(4-ethylbenzoyl)-5-fluorocytidine] | 89.8 | 50 | 0.12 | > 100 | 0.22 | > 100 | 0.03 | > 100 | 
CCCc1ccc(C(=O)Nc2nc(=O)n([C@H]3CC[C@@H](CO)O3)cc2F)cc1 [Compound 26, β-D-2′,3′-Dideoxy-5-fluoro-N^4-(4-n-propylbenzoyl)cytidine] | > 100 | > 50 | 0.1 | > 100 | 0.22 | > 100 | 0.017 | > 100 | 
O=C(Nc1nc(=O)n([C@H]2C=C[C@@H](CO)O2)cc1F)c1ccc(F)cc1 [Compound 35, β-D-2′,3′-Didehydro-2′,3′-dideoxy-5-fluoro-N^4-(4-fluorobenzoyl)cytidine] |  |  |  |  |  |  |  |  | IC50 [1, 22]: 51.3 µM; IC50 [2, 23]: > 50 µM; EC90 [3, 24]: 0.88 µM; IC50 [4, 25]: 93.6 µM; EC90 [5, 26]: 7.2 µM; IC50 [6, 27]: 53.1 µM; EC90 [7, 28]: 1.08 µM; IC50 [8, 29]: 83.1 µM
O=C(Nc1nc(=O)n([C@H]2C=C[C@@H](CO)O2)cc1F)c1ccc(Cl)cc1 [Compound 36, β-D-N^4-(4-Chlorobenzoyl)-2′,3′-didehydro-2′,3′-dideoxy-5-fluorocytidine] |  |  |  |  |  |  |  |  | IC50 [1, 22]: 16.8 µM; IC50 [2, 23]: > 50 µM; EC90 [3, 24]: 0.23 µM; IC50 [4, 25]: > 100 µM; EC90 [5, 26]: 1.9 µM; IC50 [6, 27]: 11.9 µM; EC90 [7, 28]: 0.48 µM; IC50 [8, 29]: 72.2 µM
O=C(Nc1nc(=O)n([C@H]2C=C[C@@H](CO)O2)cc1F)c1ccc(Br)cc1 [Compound 37, β-D-N^4-(4-Bromobenzoyl)-2,3′-didehydro-2′,3′-dideoxy-5-fluorocytidine] |  |  |  |  |  |  |  |  | IC50 [1, 22]: 24 µM; IC50 [2, 23]: > 50 µM; EC90 [3, 24]: 0.14 µM; IC50 [4, 25]: > 100 µM; EC90 [5, 26]: 5.2 µM; IC50 [6, 27]: 53 µM; EC90 [7, 28]: 1.4 µM; IC50 [8, 29]: 40.5 µM
O=C(Nc1nc(=O)n([C@H]2C=C[C@@H](CO)O2)cc1F)c1ccc(I)cc1 [Compound 38, β-D-2′,3′-Didehydro-2′,3′-dideoxy-5-fluoro-N^4-(4-iodobenzoyl)cytidine] |  |  |  |  |  |  |  |  | IC50 [1, 22]: 11.4 µM; IC50 [2, 23]: > 50 µM; EC90 [3, 24]: 0.31 µM; IC50 [4, 25]: > 100 µM; EC90 [5, 26]: 0.85 µM; IC50 [6, 27]: 57 µM; EC90 [7, 28]: 0.76 µM; IC50 [8, 29]: 100 µM
